# Laboratory results as given in patent US8829011B2 (Janssen Pharmaceutica NV, priority 2008, dated 2014).
# Columns and labels:
# [1] = molecular target: T1, human recombinant 5-HT2A receptor (Homo sapiens, UniProt P28223); assay: Affinity for 5-HT2A receptor binding sites (competitive radioligand binding, [3H]ketanserin); conditions: membranes of NIH3T3 with h5-HT2A, * = tested as hydrochloride salt
# T1 construct: expressed in transfected cells; host or cells: NIH3T3
# Summary of the method: (§1)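 Membranes from NIH3T3 cells stably expressing h5-HT2A or CHO cells stably expressing h5-HT2B/h5-HT2C; [3H]ketanserin used for 5-HT2A, [3H]mesulergine for 5-HT2B/2C. Compounds from 10 mM DMSO stocks, final DMSO ≤0.4%. Affinity from sigmoidal inhibition curves fitted by nonlinear regression.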
# [2] = molecular target: T2, human recombinant 5-HT2B receptor (Homo sapiens, UniProt P41595); assay: Affinity for 5-HT2B receptor binding sites (competitive radioligand binding, [3H]mesulergine); conditions: membranes of CHO with h5-HT2B, * = tested as hydrochloride salt
# T2 construct: expressed in transfected cells; host or cells: CHO
# T2 sequence (P41595 whole entry): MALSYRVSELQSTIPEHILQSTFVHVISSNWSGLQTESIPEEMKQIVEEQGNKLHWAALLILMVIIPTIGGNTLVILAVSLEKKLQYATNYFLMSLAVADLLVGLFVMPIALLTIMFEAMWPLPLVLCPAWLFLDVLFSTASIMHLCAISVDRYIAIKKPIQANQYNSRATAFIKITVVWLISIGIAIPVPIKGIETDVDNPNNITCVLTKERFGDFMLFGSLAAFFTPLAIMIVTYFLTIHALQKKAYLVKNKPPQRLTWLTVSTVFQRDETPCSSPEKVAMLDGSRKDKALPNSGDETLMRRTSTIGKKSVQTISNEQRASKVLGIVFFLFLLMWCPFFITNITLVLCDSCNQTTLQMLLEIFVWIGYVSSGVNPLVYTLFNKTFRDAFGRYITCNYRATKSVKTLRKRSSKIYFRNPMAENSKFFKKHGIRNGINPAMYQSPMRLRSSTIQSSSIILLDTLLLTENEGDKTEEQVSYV
# Summary of the method: as §1
# [3] = molecular target: T3, human recombinant 5-HT6 receptor (Homo sapiens, UniProt P50406); assay: Affinity for 5-HT6 receptor binding sites (competitive radioligand binding, [3H]LSD); conditions: membranes of HEK-293 with h5-HT6, * = tested as hydrochloride salt
# T3 construct: expressed in transfected cells; host or cells: HEK-293
# T3 sequence (P50406 whole entry): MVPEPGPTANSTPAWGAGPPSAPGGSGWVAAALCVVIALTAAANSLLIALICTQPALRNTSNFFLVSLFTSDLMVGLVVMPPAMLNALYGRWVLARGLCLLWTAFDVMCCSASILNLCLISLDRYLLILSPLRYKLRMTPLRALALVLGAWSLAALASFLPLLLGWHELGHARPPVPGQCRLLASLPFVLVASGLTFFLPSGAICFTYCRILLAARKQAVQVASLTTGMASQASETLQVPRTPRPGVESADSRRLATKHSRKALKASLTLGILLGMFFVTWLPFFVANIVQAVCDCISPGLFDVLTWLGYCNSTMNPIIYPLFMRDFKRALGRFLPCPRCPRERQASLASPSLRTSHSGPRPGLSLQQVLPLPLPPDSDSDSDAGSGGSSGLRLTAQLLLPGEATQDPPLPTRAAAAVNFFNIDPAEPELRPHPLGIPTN
# Summary of the method: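 Membranes from HEK-293 cells stably expressing human 5-HT6, competition against [3H]LSD; nonspecific binding defined with 1 μM clozapine. DMSO ≤0.4% final. Inhibition curves fitted by nonlinear regression.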
# rat 5-HT7a receptor = molecular target: T4, rat 5-HT7a receptor (Rattus norvegicus, UniProt P32305); assay: Affinity for 5-HT7 receptor binding sites (competition radioligand binding, [3H]5-CT); conditions: membranes of HEK-293 cells with rat 5-HT7a; 1 nM [3H]5-CT; * = tested as hydrochloride salt
# T4 construct: expressed in transfected cells; host or cells: HEK-293
# T4 sequence (P32305 whole entry): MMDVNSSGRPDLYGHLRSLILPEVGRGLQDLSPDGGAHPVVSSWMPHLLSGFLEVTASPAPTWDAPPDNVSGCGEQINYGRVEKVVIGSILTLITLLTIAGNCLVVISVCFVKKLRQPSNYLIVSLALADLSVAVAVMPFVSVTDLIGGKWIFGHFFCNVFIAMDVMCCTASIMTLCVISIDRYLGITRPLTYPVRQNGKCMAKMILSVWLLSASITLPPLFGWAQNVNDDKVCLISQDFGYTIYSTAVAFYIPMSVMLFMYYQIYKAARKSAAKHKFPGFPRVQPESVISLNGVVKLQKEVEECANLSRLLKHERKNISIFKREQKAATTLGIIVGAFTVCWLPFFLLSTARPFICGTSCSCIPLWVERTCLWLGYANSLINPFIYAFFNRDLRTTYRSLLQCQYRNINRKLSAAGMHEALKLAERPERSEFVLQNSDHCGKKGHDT
# Summary of the method: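 Membranes from HEK-293 cells stably expressing rat 5-HT7a receptor, in 50 mM Tris-HCl pH 7.5 with 5 mM EDTA, incubated 60 min at RT with 1 nM [3H]5-CT and increasing compound; nonspecific binding defined with 10 μM 5-HT. Bound radioactivity read after rapid filtration; inhibition curves fitted by nonlinear regression; triplicate.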
# [4] = molecular target: T5, human recombinant 5-HT2C receptor (Homo sapiens, UniProt P28335); assay: Affinity for 5-HT2C receptor binding sites (competitive radioligand binding, [3H]mesulergine); conditions: membranes of CHO with h5-HT2C, * = tested as hydrochloride salt
# T5 construct: expressed in transfected cells; host or cells: CHO
# T5 sequence (P28335 33-458): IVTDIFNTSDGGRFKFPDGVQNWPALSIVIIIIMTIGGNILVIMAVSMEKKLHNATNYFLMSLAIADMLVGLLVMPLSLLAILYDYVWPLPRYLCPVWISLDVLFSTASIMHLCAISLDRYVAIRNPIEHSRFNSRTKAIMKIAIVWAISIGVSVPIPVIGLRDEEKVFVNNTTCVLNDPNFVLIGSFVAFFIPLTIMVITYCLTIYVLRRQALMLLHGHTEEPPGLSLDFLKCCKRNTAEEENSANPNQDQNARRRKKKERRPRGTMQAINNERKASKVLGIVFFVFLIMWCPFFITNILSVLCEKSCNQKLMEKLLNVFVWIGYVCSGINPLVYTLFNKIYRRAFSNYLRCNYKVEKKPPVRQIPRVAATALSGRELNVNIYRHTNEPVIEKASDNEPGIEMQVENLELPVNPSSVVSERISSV
# Summary of the method: as §1
# T1 sequence (P28223 whole entry): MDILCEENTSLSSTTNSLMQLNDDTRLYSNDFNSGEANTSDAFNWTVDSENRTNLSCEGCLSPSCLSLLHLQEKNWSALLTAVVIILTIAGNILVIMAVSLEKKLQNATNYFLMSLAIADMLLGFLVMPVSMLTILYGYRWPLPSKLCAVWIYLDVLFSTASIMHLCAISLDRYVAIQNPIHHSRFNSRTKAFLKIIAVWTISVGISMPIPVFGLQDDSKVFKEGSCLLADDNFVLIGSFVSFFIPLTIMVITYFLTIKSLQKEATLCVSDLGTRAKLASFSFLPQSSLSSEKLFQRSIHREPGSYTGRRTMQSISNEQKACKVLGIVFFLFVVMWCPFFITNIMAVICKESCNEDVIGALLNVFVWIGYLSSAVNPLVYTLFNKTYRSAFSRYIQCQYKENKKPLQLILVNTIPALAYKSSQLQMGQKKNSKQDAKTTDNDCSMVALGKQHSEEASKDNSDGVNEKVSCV
SMILES,Ki [1],Ki [2],Ki [3],Ki (rat 5-HT7a receptor),Ki [4]
"Cc1ccc(-c2nc(N3CCCCC3)nc3c2CNCC3)cc1 [Example 50, 2-Piperidin-1-yl-4-p-tolyl-5,6,7,8-tetrahydro-pyrido[4,3-d]pyrimidine]",30 nM,160 nM,776 nM,350 nM,130 nM
"Cc1ccc(-c2nc(NCc3ccccc3)nc3c2CNCC3)cc1 [Example 51, Benzyl-(4-p-tolyl-5,6,7,8-tetrahydro-pyrido[4,3-d]pyrimidin-2-yl)-amine]",75 nM,700 nM,912 nM,320 nM,100 nM
"Cc1ccc(-c2nc(N3CCCC3)nc3c2CN(C)CC3)cc1 [Example 52, 6-Methyl-2-pyrrolidin-1-yl-4-p-tolyl-5,6,7,8-tetrahydro-pyrido[4,3-d]pyrimidine]",120 nM,500 nM,977 nM,> 10000 nM,500 nM
"CCN(CC)c1nc2c(c(-c3ccc(Cl)cc3)n1)CCNCC2 [Example 60, [4-(4-Chloro-phenyl)-6,7,8,9-tetrahydro-5H-pyrimido[4,5-d]azepin-2-yl]-diethyl-amine]",20 nM,10 nM,> 10000 nM,41 nM,100 nM
"Cc1ccc(-c2nc(N(C)C)nc3c2CNCC3)cc1 [Example 61, Dimethyl-(4-p-tolyl-5,6,7,8-tetrahydro-pyrido[4,3-d]pyrimidin-2-yl)-amine]",420 nM,620 nM,2290 nM,9000 nM,5000 nM
